Key:
[1] = system: A431 squamous carcinoma cells; assay: Comparative cytotoxic effects of free and conjugated daunomycin, Trypan Blue exclusion; format: cell-based, human; settings: A431, 1 μg/ml daunomycin or equivalent in conjugate, 48 hours
Experimental: All cells were maintained in Dulbecco's Modified Medium (DMEM), 10 percent foetal calf serum (FSC) (GIBCO), 2 percent penicillin-streptomycin (Gibco) and 1 percent fungizone (GIBCO) in 5 percent CO2. They were plated at 50 to 60 percent confluence 24 hours before the addition of the toxin. […] Four volumes of 0.2 percent (w/v) Trypan Blue in water was freshly mixed with 1 volume of a saline solution 4.25 percent (w/v) of NaCl in water. One volume of this solution was mixed with 1 volume of PBS on the cell monolayer or to 1 volume of cell suspension in PBS. Observation and scoring took place 48 hours after addition of the toxin (see FIG. 2a and 2b).

[2] = system: mixed culture of A431 and WI38 cells; assay: Effect on mixed cultures of tumor (A431) and normal (WI38) cells; format: cell-based; settings: 0.1 μg/ml (or equivalent free daunomycin), after 15 days
Experimental: Cells were maintained as described in Example 4. The WI38 fibroblasts were first plated and the A431 squamous carcinoma cells were plated the next day. […]

A431 malignant cells = assay: Inhibition of cellular protein synthesis (35S methionine incorporation), A431; format: cell-based; settings: Homo sapiens, A-431, 48 h, read-out: % of protein Synthesis Inhibition
Experimental: (§1) The effect of these drugs was evaluated by the degree of inhibition of cellular protein synthesis. For this, we measured the level of incorporation of 35S methionine NEN) into newly synthesized proteins after a 48 hrs exposure to different concentrations of the drugs.
(§2) Cells were plated on 1.5 cm Petri dishes at 50 percent to 60 percent of confluence before the addition of the toxin. […] Cell death consecutive to this addition was measured as follows: the cells were exposed for 1 hour at 37° C. in 500 μl DMEM low methionine medium (GIBCO) containing radioactive ^35 S met. The medium was then removed and the dishes were washed with PBS 9137 mM NaCl, […], […], 8.1 mM Na2 HPO4, 1.5 mM KH2 PO4, 0.9 mM CaCl2, 0.5 mM MgCl2, pH 7.2). These solutions were stored for beta counting. The cells were lysed with 1 ml 0.1 N NaOH and placed in a tube with 500 μl Trichloroacetic acid (TCA) 10 percent to precipitate the proteins. This mixture was filtered on GF/A filters (Whatman) to eliminate unreacted ^35 S-met. The filters were washed twice with 1 ml of 10 percent TCA and once with 100 percent ethanol. The filters were dried at 80° C. for 2 hours and subjected to beta counting in Econofluor (NEN) scintillation medium.

WI38 (control) cells = assay: Inhibition of cellular protein synthesis (35S methionine incorporation), WI38; format: cell-based; settings: Homo sapiens, WI-38, 48 h
Experimental: as §1, §2

A431 tumors [3] = assay: In vivo test of Conjugate VIII, A431 tumors in nude mice; settings: for Initial Surface of the Tumor (A): before treatment; for Final Surface of the tumor (B): a week after last injection; for Tumor weight: tumors dissected at end of experiment
Experimental: In the prior art, up to 10 mg/kg doses have been used in mice (S. Schwarz, et al., 1975, Cancer Chem. Rep., 6, 2, 107-114). The drug was injected either directly in the tumor or in the caudal vein 4 times at 3 days intervals. The measures were taken a week after the last injection.

A431 tumors [4] = assay: In vivo test of Conjugate IX, A431 tumors in nude mice; settings: 2 mg/kg daunomycin every 3 days over 9 days, caudal vein
Description: The in vivo tests reported in Example 8 were repeated using Conjugate IX.

[5] = system: A431 squamous carcinoma cells; assay: Internalization of 125I-labelled EGF and Conjugate VIII in A431 cells; format: cell-based, human; settings: A431, 6 hrs at 37° C.
Experimental: (§3) The Conjugate VIII, radiolabeled with ^125 I on the EGF, was incubated with confluent cell cultures of A431 and WI38 cells for 6 hrs at 37° C. in solution A (4 parts DMEM and 1 part of 50 mM Tris, 100 mM NaCl and 0.1 percent BSA adjusted to pH 7.4). The cells were then washed four times with ice-cold PBS+1 mM CaCl2 and 1 mM MgCl2. Fifty percent trichloroacetic acid was added in a proportion of 1:5 to the pooled solution A and PBS, and the mixture was counted on a gamma counter. The cell membrane was destablized by treatment on ice with 200 mM acetic acid and 150 mM NaCl (solution B) for 6 minutes. The solution B was then removed and the cells washed twice with solution B. These pooled B solutions were assayed for ^125 I. This treatment releases the […] to the cell surface. The cells were then completely dissolved in 0.2 N NaOH. The radioactivity found there represented the internalized Conjugate VIII. In control experiments, using free EGF ^125 I, a proportion of the EGF is recycled to the medium, therefore lowering the intracellular EGF. The results on the internalization of ^125 I labelled EGF and Conjugate VIII in WI38 and A431 cell cultures are given in the following Table in terms of counts per min (background 30 cpm) for successively: EGF not integrated in the cell, EGF bound to the membrane, and EGF in the intra-cellular compartment. The percent of total cpm is given in brackets.

WI38 fibroblasts = assay: Internalization of 125I-labelled EGF and Conjugate VIII in WI38 cells; format: cell-based; settings: WI38, 6 hrs at 37° C.
Experimental: as §3

[6] = I.T., 0.1 mg/kg daunomycin 4 times at 3 days intervals

COc1cccc2c1C(=O)c1c(O)c3c(c(O)c1C2=O)C[C@@](O)(C(C)=O)C[C@@H]3O[C@H]1C[C@H](N)[C@H](O)[C@H](C)O1 [Daunomycin, daunomycin]
Cell death by Trypan Blue exclusion [1]: Exclusion of the dye from the cells demonstrates the viability thereof
Cells remaining in mixed culture [2]: all cells, malignant and normal, had died after 15 days
inhibition at 0.1 µg/mL (A431 malignant cells): 30%
inhibition at 0.5 µg/mL (A431 malignant cells): 68%
inhibition at 1 µg/mL (A431 malignant cells): 97%
inhibition at 0.1 µg/mL (WI38 (control) cells): 10%
inhibition at 0.5 µg/mL (WI38 (control) cells): 46%
inhibition at 1 µg/mL (WI38 (control) cells): 80%
Initial Surface of the Tumor (A) (A431 tumors [3]; I.T. (intratumor)): 9
Growth coefficient (B/A) (A431 tumors [3]; [6]): 18.7
Final Surface of the tumor (B) (A431 tumors [3]; [6]): 170
Tumor weight (A431 tumors [3]; I.T.): 1.178 g
Initial Surface of the Tumor (A) (A431 tumors [3]; I.V. (caudal vein)): 30.5
Final Surface of the tumor (B) (A431 tumors [3]; I.V., 0.1 mg/kg daunomycin 4 times at 3 days intervals): 500
Tumor weight (A431 tumors [3]; I.V.): 6.789 g
Tumor diameter (A431 tumors [4]; day 0): 10 mm
Tumor diameter (A431 tumors [4]; day 4): 12 mm
Tumor diameter (A431 tumors [4]; day 7): 15 mm
Tumor diameter (A431 tumors [4]; day 11): 20 mm
Tumor diameter (A431 tumors [4]; day 14): 21 mm

EGF: Epidermal Growth Factor, a single polypeptide of 53 amino acids (SIGMA)
Intracellular, percent of total cpm [5]: 14%
Membrane, percent of total cpm [5]: 0%
Unbound, percent of total cpm [5]: 86%
Intracellular ([5]; background 30 cpm): 111 cpm
Membrane ([5]; background 30 cpm): 31 cpm
Unbound (EGF not integrated in the cell) ([5]; background 30 cpm): 536 cpm
Intracellular, percent of total cpm (WI38 fibroblasts): 7%
Membrane bound, percent of total cpm (WI38 fibroblasts): 0%
Unbound, percent of total cpm (WI38 fibroblasts): 93%
Intracellular (WI38 fibroblasts; background 30 cpm): 67 cpm
Membrane bound (WI38 fibroblasts; background 30 cpm): 29 cpm
Unbound (EGF not integrated in the cell) (WI38 fibroblasts; background 30 cpm): 530 cpm
Tumor diameter (A431 tumors [4]; day 0): 10 mm
Tumor diameter (A431 tumors [4]; day 4): 13 mm
Tumor diameter (A431 tumors [4]; day 7): 14 mm
Tumor diameter (A431 tumors [4]; day 11): 17 mm
Tumor diameter (A431 tumors [4]; day 14): 17 mm
